# System: E. coli
# Assay: Test Example 1: inducing E. coli CGC with N-acetyl-D-glucosamine and antibiotics in different ratios (K-B method, microscopy)
# Type: cell-based
smiles,measurement,setting,value
"CC(=O)N[C@@H]1[C@@H](O)[C@H](O)[C@@H](CO)O[C@H]1O [Compound (I), N-acetyl-D-glucosamine]",CGC formation,"Compound (I) 10 mg, aminoglycoside (kanamycin, gentamycin) 50 mg","− (if cell length was not greater than 50 μm and cell number was within the range from 0 to 4 in each visual field, it was deemed as CGC negative and was marked with “−”)"
same,CGC formation,"Compound (I) 10 mg, aminoglycoside (kanamycin, gentamycin) 100 mg","+ (If cell length was more than 50 μm and cell number was more than 5 in each visual field, it was deemed as CGC positive and was marked with “+”)"
same,CGC formation,"Compound (I) 10 mg, aminoglycoside (kanamycin, gentamycin) 150 mg","+ (If cell length was more than 50 μm and cell number was more than 5 in each visual field, it was deemed as CGC positive and was marked with “+”)"
same,CGC formation,"Compound (I) 10 mg, aminoglycoside (kanamycin, gentamycin) 200 mg","+ (If cell length was more than 50 μm and cell number was more than 5 in each visual field, it was deemed as CGC positive and was marked with “+”)"
same,CGC formation,"Compound (I) 10 mg, aminoglycoside (kanamycin, gentamycin) 300 mg","+ (If cell length was more than 50 μm and cell number was more than 5 in each visual field, it was deemed as CGC positive and was marked with “+”)"
same,CGC formation,"Compound (I) 10 mg, aminoglycoside (kanamycin, gentamycin) 400 mg","+ (If cell length was more than 50 μm and cell number was more than 5 in each visual field, it was deemed as CGC positive and was marked with “+”)"
same,CGC formation,"Compound (I) 10 mg, aminoglycoside (kanamycin, gentamycin) 500 mg","+ (If cell length was more than 50 μm and cell number was more than 5 in each visual field, it was deemed as CGC positive and was marked with “+”)"
same,CGC formation,"Compound (I) 10 mg, macrolide (spiramycin) 300 mg","− (if cell length was not greater than 50 μm and cell number was within the range from 0 to 4 in each visual field, it was deemed as CGC negative and was marked with “−”)"
same,CGC formation,"Compound (I) 10 mg, macrolide (spiramycin) 500 mg","+ (If cell length was more than 50 μm and cell number was more than 5 in each visual field, it was deemed as CGC positive and was marked with “+”)"
same,CGC formation,"Compound (I) 10 mg, macrolide (spiramycin) 700 mg","+ (If cell length was more than 50 μm and cell number was more than 5 in each visual field, it was deemed as CGC positive and was marked with “+”)"
same,CGC formation,"Compound (I) 10 mg, macrolide (spiramycin) 900 mg","+ (If cell length was more than 50 μm and cell number was more than 5 in each visual field, it was deemed as CGC positive and was marked with “+”)"
same,CGC formation,"Compound (I) 10 mg, macrolide (spiramycin) 1100 mg","+ (If cell length was more than 50 μm and cell number was more than 5 in each visual field, it was deemed as CGC positive and was marked with “+”)"
same,CGC formation,"Compound (I) 10 mg, macrolide (spiramycin) 1300 mg","+ (If cell length was more than 50 μm and cell number was more than 5 in each visual field, it was deemed as CGC positive and was marked with “+”)"
same,CGC formation,"Compound (I) 10 mg, macrolide (spiramycin) 1500 mg","+ (If cell length was more than 50 μm and cell number was more than 5 in each visual field, it was deemed as CGC positive and was marked with “+”)"
same,CGC formation,"Compound (I) 50 mg, aminoglycoside (kanamycin, gentamycin) 50 mg","− (if cell length was not greater than 50 μm and cell number was within the range from 0 to 4 in each visual field, it was deemed as CGC negative and was marked with “−”)"
same,CGC formation,"Compound (I) 50 mg, aminoglycoside (kanamycin, gentamycin) 100 mg","− (if cell length was not greater than 50 μm and cell number was within the range from 0 to 4 in each visual field, it was deemed as CGC negative and was marked with “−”)"
same,CGC formation,"Compound (I) 50 mg, aminoglycoside (kanamycin, gentamycin) 150 mg","+ (If cell length was more than 50 μm and cell number was more than 5 in each visual field, it was deemed as CGC positive and was marked with “+”)"
same,CGC formation,"Compound (I) 50 mg, aminoglycoside (kanamycin, gentamycin) 200 mg","+ (If cell length was more than 50 μm and cell number was more than 5 in each visual field, it was deemed as CGC positive and was marked with “+”)"
same,CGC formation,"Compound (I) 50 mg, aminoglycoside (kanamycin, gentamycin) 300 mg","+ (If cell length was more than 50 μm and cell number was more than 5 in each visual field, it was deemed as CGC positive and was marked with “+”)"
same,CGC formation,"Compound (I) 50 mg, aminoglycoside (kanamycin, gentamycin) 400 mg","+ (If cell length was more than 50 μm and cell number was more than 5 in each visual field, it was deemed as CGC positive and was marked with “+”)"
same,CGC formation,"Compound (I) 50 mg, aminoglycoside (kanamycin, gentamycin) 500 mg","+ (If cell length was more than 50 μm and cell number was more than 5 in each visual field, it was deemed as CGC positive and was marked with “+”)"
same,CGC formation,"Compound (I) 50 mg, macrolide (spiramycin) 300 mg","− (if cell length was not greater than 50 μm and cell number was within the range from 0 to 4 in each visual field, it was deemed as CGC negative and was marked with “−”)"
same,CGC formation,"Compound (I) 50 mg, macrolide (spiramycin) 500 mg","− (if cell length was not greater than 50 μm and cell number was within the range from 0 to 4 in each visual field, it was deemed as CGC negative and was marked with “−”)"
same,CGC formation,"Compound (I) 50 mg, macrolide (spiramycin) 700 mg","+ (If cell length was more than 50 μm and cell number was more than 5 in each visual field, it was deemed as CGC positive and was marked with “+”)"
same,CGC formation,"Compound (I) 50 mg, macrolide (spiramycin) 900 mg","+ (If cell length was more than 50 μm and cell number was more than 5 in each visual field, it was deemed as CGC positive and was marked with “+”)"
same,CGC formation,"Compound (I) 50 mg, macrolide (spiramycin) 1100 mg","+ (If cell length was more than 50 μm and cell number was more than 5 in each visual field, it was deemed as CGC positive and was marked with “+”)"
same,CGC formation,"Compound (I) 50 mg, macrolide (spiramycin) 1300 mg","+ (If cell length was more than 50 μm and cell number was more than 5 in each visual field, it was deemed as CGC positive and was marked with “+”)"
same,CGC formation,"Compound (I) 50 mg, macrolide (spiramycin) 1500 mg","+ (If cell length was more than 50 μm and cell number was more than 5 in each visual field, it was deemed as CGC positive and was marked with “+”)"
same,CGC formation,"Compound (I) 100 mg, aminoglycoside (kanamycin, gentamycin) 50 mg","− (if cell length was not greater than 50 μm and cell number was within the range from 0 to 4 in each visual field, it was deemed as CGC negative and was marked with “−”)"
same,CGC formation,"Compound (I) 100 mg, aminoglycoside (kanamycin, gentamycin) 100 mg","− (if cell length was not greater than 50 μm and cell number was within the range from 0 to 4 in each visual field, it was deemed as CGC negative and was marked with “−”)"
same,CGC formation,"Compound (I) 100 mg, aminoglycoside (kanamycin, gentamycin) 150 mg","− (if cell length was not greater than 50 μm and cell number was within the range from 0 to 4 in each visual field, it was deemed as CGC negative and was marked with “−”)"
same,CGC formation,"Compound (I) 100 mg, aminoglycoside (kanamycin, gentamycin) 200 mg","+ (If cell length was more than 50 μm and cell number was more than 5 in each visual field, it was deemed as CGC positive and was marked with “+”)"
same,CGC formation,"Compound (I) 100 mg, aminoglycoside (kanamycin, gentamycin) 300 mg","+ (If cell length was more than 50 μm and cell number was more than 5 in each visual field, it was deemed as CGC positive and was marked with “+”)"
same,CGC formation,"Compound (I) 100 mg, aminoglycoside (kanamycin, gentamycin) 400 mg","+ (If cell length was more than 50 μm and cell number was more than 5 in each visual field, it was deemed as CGC positive and was marked with “+”)"
same,CGC formation,"Compound (I) 100 mg, aminoglycoside (kanamycin, gentamycin) 500 mg","+ (If cell length was more than 50 μm and cell number was more than 5 in each visual field, it was deemed as CGC positive and was marked with “+”)"
same,CGC formation,"Compound (I) 100 mg, macrolide (spiramycin) 300 mg","− (if cell length was not greater than 50 μm and cell number was within the range from 0 to 4 in each visual field, it was deemed as CGC negative and was marked with “−”)"
same,CGC formation,"Compound (I) 100 mg, macrolide (spiramycin) 500 mg","− (if cell length was not greater than 50 μm and cell number was within the range from 0 to 4 in each visual field, it was deemed as CGC negative and was marked with “−”)"
same,CGC formation,"Compound (I) 100 mg, macrolide (spiramycin) 700 mg","− (if cell length was not greater than 50 μm and cell number was within the range from 0 to 4 in each visual field, it was deemed as CGC negative and was marked with “−”)"
same,CGC formation,"Compound (I) 100 mg, macrolide (spiramycin) 900 mg","+ (If cell length was more than 50 μm and cell number was more than 5 in each visual field, it was deemed as CGC positive and was marked with “+”)"
same,CGC formation,"Compound (I) 100 mg, macrolide (spiramycin) 1100 mg","+ (If cell length was more than 50 μm and cell number was more than 5 in each visual field, it was deemed as CGC positive and was marked with “+”)"
same,CGC formation,"Compound (I) 100 mg, macrolide (spiramycin) 1300 mg","+ (If cell length was more than 50 μm and cell number was more than 5 in each visual field, it was deemed as CGC positive and was marked with “+”)"
same,CGC formation,"Compound (I) 100 mg, macrolide (spiramycin) 1500 mg","+ (If cell length was more than 50 μm and cell number was more than 5 in each visual field, it was deemed as CGC positive and was marked with “+”)"
same,CGC formation,"Compound (I) 150 mg, aminoglycoside (kanamycin, gentamycin) 50 mg","− (if cell length was not greater than 50 μm and cell number was within the range from 0 to 4 in each visual field, it was deemed as CGC negative and was marked with “−”)"
same,CGC formation,"Compound (I) 150 mg, aminoglycoside (kanamycin, gentamycin) 100 mg","− (if cell length was not greater than 50 μm and cell number was within the range from 0 to 4 in each visual field, it was deemed as CGC negative and was marked with “−”)"
same,CGC formation,"Compound (I) 150 mg, aminoglycoside (kanamycin, gentamycin) 150 mg","− (if cell length was not greater than 50 μm and cell number was within the range from 0 to 4 in each visual field, it was deemed as CGC negative and was marked with “−”)"
same,CGC formation,"Compound (I) 150 mg, aminoglycoside (kanamycin, gentamycin) 200 mg","− (if cell length was not greater than 50 μm and cell number was within the range from 0 to 4 in each visual field, it was deemed as CGC negative and was marked with “−”)"
same,CGC formation,"Compound (I) 150 mg, aminoglycoside (kanamycin, gentamycin) 300 mg","+ (If cell length was more than 50 μm and cell number was more than 5 in each visual field, it was deemed as CGC positive and was marked with “+”)"
same,CGC formation,"Compound (I) 150 mg, aminoglycoside (kanamycin, gentamycin) 400 mg","+ (If cell length was more than 50 μm and cell number was more than 5 in each visual field, it was deemed as CGC positive and was marked with “+”)"
same,CGC formation,"Compound (I) 150 mg, aminoglycoside (kanamycin, gentamycin) 500 mg","+ (If cell length was more than 50 μm and cell number was more than 5 in each visual field, it was deemed as CGC positive and was marked with “+”)"
same,CGC formation,"Compound (I) 150 mg, macrolide (spiramycin) 300 mg","− (if cell length was not greater than 50 μm and cell number was within the range from 0 to 4 in each visual field, it was deemed as CGC negative and was marked with “−”)"

# From US20070191291A1, “Compound antibacterial drugs comprising n-acetyl-d-glucosamine” (priority 2003, published 2007)
